First: CCCCCCCCCCCCCCCCCCOCCSCCOC(=O)N(Cc1ccccn1)C(C)=O
Second: CCCCCCCCCCCCCCCCNc1cc(O)ccc1OCC
The melting point of the first is lower: 47 to 49 °C for the first, 88 to 90 °C for the second.

First: COc1nc(C(=O)NC(C)(C)C)c(C(=O)O)s1
Second: COc1cccc(C(=O)Nc2ccc(C(C)=O)cc2)c1
The melting point of the first is lower: 120 to 122 °C for the first, 152 to 154 °C for the second.

First: Cc1nnc2n1-c1sc(CCS(=O)(=O)N3CCN(C)CC3)cc1C(c1ccccc1Cl)=NC2
Second: CS(=O)(=O)Nc1cccc(Nc2nc(NCCN3CCOCC3)c3nc[nH]c3n2)c1
The melting point of the first is lower: 148 to 150 °C for the first, 233 to 237 °C for the second.

First: COc1cc(OC)c2c(c1)C(C)(C)C(c1ccc(OC)c(OC)c1)C(C)C(=O)O2 (stereo not given)
Second: CC1(C)OC(=O)Nc2ccc(-c3ccc(F)cc3)cc21
The melting point of the first is lower: 163 to 165 °C for the first, 232 to 233 °C for the second.

Compared with CN(CCO)c1cccc2c1C(=O)c1c(cccc1N(C)CCO)C2=O, Cc1cc(Cc2ccc(NC(=O)N(C)C)cn2)n(C)c1C(=O)c1ccc(Cl)cc1 is higher in melting point: 168 to 178 °C for the first, 227 to 230 °C for the second.

First: O=C(Cn1nccc1-c1ccc(Oc2ccc(F)cc2)cc1)N1CCOCC1
Second: CCCCC(=O)Oc1ccc(-c2ccc(C#N)cc2)cc1
The melting point of the first is higher: 122 to 124 °C for the first, 36.5 to 36.9 °C for the second.

First: O=C(O)CCCCCCCCNC(=O)C1Cc2ccccc2N1S(=O)(=O)c1ccc(-c2cccc(C(F)(F)F)c2)cc1 (stereo not given)
Second: CCOP(=O)(OCC)Oc1c(C2CCN(CCCCNC(=O)c3ccc(-c4ccc(C#N)cc4)cc3)CC2)ccc2c1CCCC2
The melting point of the first is lower: 60 °C for the first, 90 °C for the second.

First: O=Cc1ccc(OCc2cccc(Cl)c2)cc1
Second: Cc1ccc(C(=O)c2ccc(Cl)cc2)cc1
The melting point of the first is lower: 51 to 54 °C for the first, 129 to 130 °C for the second.

First: N#Cc1ccc(OCCC2CCN(c3cc(Cl)nnc3Cl)CC2)cc1
Second: N#Cc1ccc2sc3c(c2c1)CC(C=O)CC3 (stereo not given)
The melting point of the first is lower: 138 to 139 °C for the first, 172 to 173 °C for the second.

First: Cc1cc2cc(/C(=C\CO)c3ccc(I)cc3)ccc2o1
Second: COC(=O)c1ccccc1NC(=O)C=C(c1ccc(Cl)cc1)c1ccc(Cl)cc1
The melting point of the first is lower: 103 to 113 °C for the first, 141 to 143 °C for the second.

First: Cc1cn(C(C)(C)C(=O)NCc2ccccc2)nc1-c1ccccc1
Second: COC(=O)Cc1ccccc1OCc1cncc(OCc2nc(-c3ccccc3)oc2C)c1
The melting point of the first is higher: 87 to 90 °C for the first, 77 to 78 °C for the second.

Compared with N#CC(C(=O)NC1CCCCC1)=C1Nc2ccccc2O1, CC(C)n1nc(-c2sc(C(=O)NC3CC3)nc2-c2ccccc2)ccc1=O is lower in melting point: 185 to 187 °C for the first, 127 to 128 °C for the second.

Going from O=P(Oc1cccc(OP(=O)(c2ccccc2)c2ccccc2)c1)(c1ccccc1)c1ccccc1 to CC1C(=O)N(c2ccccc2)C(=S)N1Cc1ccc(Oc2ccccc2)cc1 (stereo not given), the melting point falls from 130 °C to 122 °C.

First: COc1ccc(-c2nnc(Nc3ccc4cccnc4c3)cc2-c2ccc(C(F)(F)F)cc2)cc1
Second: CC(=O)Nc1nc(-c2ccc(C(C)(C)C)cc2)c(-c2ccncc2)s1
The melting point of the first is lower: 215 to 217 °C for the first, 280 to 281 °C for the second.

First: NC(=S)NCCC(O)(c1ccc(F)cc1)c1ccccn1 (stereo not given)
Second: Nc1ccc(-n2ncnc2-c2ccccc2)cc1
The melting point of the first is lower: 148 to 149 °C for the first, 161 to 163 °C for the second.

First: O=C(Nc1ccccc1)C1=CCN(Cc2c[nH]c3ncccc23)CC1
Second: O=C(O)c1cccc2[nH]c(=O)c(-c3csc(-c4ccncc4)n3)cc12
The melting point of the first is lower: 217 to 220 °C for the first, > 250 °C for the second.

Compared with COCCNc1c([N+](=O)[O-])cc(C(F)(F)F)c2sc(=O)sc12, COc1ccc(Cl)cc1NC(=S)C1CCCCn2c1nc(-c1ccncn1)cc2=O (racemic) is higher in melting point: 96 to 98 °C for the first, 220 to 223 °C for the second.

First: CN1CCC(Oc2cc3c(cc2F)c(=O)c(C(=O)O)cn3C2CC2)CC1
Second: CC(=O)O[C@@H]1C2=C(OC(C(C)=O)=C[C@@H]2N2CCCCC2=O)SC1(C)C (relative stereo)
The melting point of the first is higher: 265 to 269 °C for the first, 180 °C for the second.

Compared with CCCCC(=CC(N)C(=O)O)CP(=O)(O)O (stereo not given), CC(C)[C@@H]1COC(=O)N1C(=O)CCc1ccccc1 is lower in melting point: 186 to 187 °C for the first, 62 °C for the second.

First: CCCCCCCOc1ccc(N=Nc2ccc([N+](=O)[O-])cc2)cc1
Second: CCOC(=O)COc1ccc2cc(Br)ccc2c1Cl
The melting point of the first is lower: 82.3 to 83.2 °C for the first, 92 to 94 °C for the second.

Compared with NS(=O)(=O)c1nc(Cl)cs1, NS(=O)(=O)c1cccc(-c2noc(-c3cnn4ccc(-c5ccc(Cl)cc5)nc34)n2)c1 is higher in melting point: 137 to 142 °C for the first, 223 °C for the second.

First: CC1CN(c2ccc(N)cc2Cl)C(=O)O1 (stereo not given)
Second: N#Cc1cc(C=NO)ccc1-n1cncn1
The melting point of the first is lower: 140 to 141 °C for the first, 198 to 200 °C for the second.

First: C=C(C)COc1ccc2c(C)cc(=O)oc2c1C(=O)C=Cc1cccnc1
Second: Cn1cnc(C=CC(=O)NC2CCNC(=O)C2)c1 (stereo not given)
The melting point of the first is lower: 110 to 112 °C for the first, 280 to 282 °C for the second.

First: O=CN[C@H]1CC[C@H](CCN2CCC(c3cccc4c3CCO4)CC2)CC1
Second: COC1C(OC(=O)N2CCOCC2)CCC2(CO2)C1C1(C)OC1CCOCc1ccccc1 (stereo not given)
The melting point of the first is higher: 142 °C for the first, 96 to 97 °C for the second.

First: CC(C)(C)OC(=O)N1[C@H](C=CCCCO)COC1(C)C
Second: CCOP(=O)(OCC)C(Sc1cc(Br)ccc1O)=P(OCC)(OCC)OCC
The melting point of the first is lower: 73 to 75 °C for the first, 118 to 120 °C for the second.

Reference: a melting point compilation (Tetko et al.; mined from patent text by program, amines drawn as free bases though some values may be those of a salt)
